Starred links: 1 amine or outer side, 2 acyl side, 3 side chain; linkers in the order of their positions; H or OH if unused. Non-standard residues stand in square brackets, D forms with d. Residues, ends and D or L forms follow the SMILES beside them. Groups on a side chain read outwards from the residue. *: point of attachment. X13 = CCCCCCCCCCCCCCCC(=O)N[C@@H](CCC(=O)N[C@@H](CCC(=O)N[C@@H](CCC(=O)N[C@@H](CCC(=O)NCCCOCCOCCOCCCNC(=O)CCC(=O)NCCCOCCOCCOCCCNC(=O)CCC(=O)NCCCOCCOCCOCCCN*)C(=O)O)C(=O)O)C(=O)O)C(=O)O; X1 = CCCCCCCCCCCCCCCC(=O)N[C@@H](CCC(=O)N[C@@H](CCC(=O)N[C@@H](CCC(=O)NCCCOCCOCCOCCCNC(=O)CCC(=O)NCCCOCCOCCOCCCNC(=O)CCC(=O)NCCCOCCOCCOCCCN*)C(=O)O)C(=O)O)C(=O)O; X8 = CCCCCCCCCCCCCCCC(=O)N[C@@H](CCC(=O)N[C@@H](CCC(=O)N[C@@H](CCC(=O)N[C@@H](CCC(=O)NCCCOCCOCCOCCCNC(=O)CCC(=O)NCCCOCCOCCOCCCN*)C(=O)O)C(=O)O)C(=O)O)C(=O)O; Suc = O=C(CCC(=O)[*:2])[*:1]; αMeK = C[C@](N)(CCCCN)C(=O)O; Aib = CC(C)(N)C(=O)O
Molecular target: T1, RXFP1 (Homo sapiens, UniProt Q9HBX9)
T1 construct: OVCAR5 cells expressing endogenous RXFP1; endogenous in cells; host or cells: OVCAR5
T1 sequence (Q9HBX9 1-757): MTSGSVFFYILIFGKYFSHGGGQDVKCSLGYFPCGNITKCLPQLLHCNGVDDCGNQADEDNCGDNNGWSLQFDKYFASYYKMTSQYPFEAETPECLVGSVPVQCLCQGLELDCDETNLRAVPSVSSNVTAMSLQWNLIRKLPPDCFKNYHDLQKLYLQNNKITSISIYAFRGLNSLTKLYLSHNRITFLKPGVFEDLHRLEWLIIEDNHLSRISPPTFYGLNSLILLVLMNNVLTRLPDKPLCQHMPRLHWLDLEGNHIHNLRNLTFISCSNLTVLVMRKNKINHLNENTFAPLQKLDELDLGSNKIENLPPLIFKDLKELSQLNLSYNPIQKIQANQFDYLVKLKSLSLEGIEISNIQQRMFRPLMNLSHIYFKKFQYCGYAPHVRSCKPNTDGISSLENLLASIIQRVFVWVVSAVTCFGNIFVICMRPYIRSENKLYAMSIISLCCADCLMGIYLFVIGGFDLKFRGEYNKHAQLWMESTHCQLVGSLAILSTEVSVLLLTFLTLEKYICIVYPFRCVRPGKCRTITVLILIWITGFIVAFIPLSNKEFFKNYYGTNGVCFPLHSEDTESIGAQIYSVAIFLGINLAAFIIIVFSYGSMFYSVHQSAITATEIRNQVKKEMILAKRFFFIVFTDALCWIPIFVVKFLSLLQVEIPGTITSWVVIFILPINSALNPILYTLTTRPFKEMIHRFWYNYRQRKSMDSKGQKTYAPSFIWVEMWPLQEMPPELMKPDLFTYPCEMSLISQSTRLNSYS
Experiment: OVCAR5 cAMP assay (HTRF)
Format: cell-based
Settings: for EC50: OVCAR 5 cells expressing endogenous RXFP1, cAMP readout; for Emax: OVCAR 5 cells, maximal cAMP relative to H2-relaxin
Description: OVCAR5 cells expressing endogenous RXFP1 were used to test RXP1 agonist properties of peptides of the invention, and in particular of the peptides of sequence SEQ ID NO: 1-97.
Since RXFP1 is a Gs coupled GPCR, cAMP was used as readout of RXFP1 activation.
Isobutyl Methyl Xanthine (IBMX) was used to inhibit phosphodiesterase activity facilitating cAMP measurements. HTRF (Homogenous Time Resolved Fluorescence) technology was used to detect cAMP due to its great sensitivity.
In summary, OVCAR5 were grown in regular medium (RPMI) containing 10% fetal calf serum (FCS) and 1% antibiotics (penicillin/streptomycin).
Before the experiments, cells were detached with accutase and incubated for 40 minutes at 37° C. with 1 mM (3-isobutyl-1-methylxanthine) IBMX.
Cells were then distributed in 384 black well plates containing increasing concentrations of the different peptides in a fix volume of medium (without FCS).
After an incubation of 30 min at 37° C. in an humid incubator in 5% CO2, the reaction was stopped by adding a fixed volume of a solution containing a lysis buffer and cAMP-D2 (cAMP labeled with the dye d2) and the anti cAMP antibody linked to Europium and used for cAMP detection.
Readout of the experiment were performed on a fluorimeter allowing HTRF measurement. Activation curves were generated by plotting the intracellular value of cAMP versus log 10 of the compound concentration.
The 50% activation concentration (EC50) was calculated by nonlinear regression using the sigmoidal dose-response (variable slope) equation with Prism 5 software.
Emax % was determined as the maximal intracellular value of cAMP for test compound (upper limit of cAMP vs concentration curve) divided by the maximal intracellular value of cAMP for H2-relaxin determined in the same test occasion multiplied by 100. Emax %=100×[cAMPtest cpd]/[cAMPH2-Rlx]

| EC50 | Emax | Compound |
| --- | --- | --- |
| 0.6 nM | 98% | CCCCCCCCCCCCCCCC(=O)N[C@@H](CCC(=O)N[C@@H](CCC(=O)N[C@@H](CCC(=O)N[C@@H](CCC(=O)NCCCOCCOCCOCCCNC(=O)CCC(=O)NCCCOCCOCCOCCCNC(=O)CCC(=O)NCCCOCCOCCOCCCNC(=O)CCC(=O)NCCCC[C@H](NC(=O)CNC(=O)[C@H](CCC(=O)O)NC(=O)C(C)(C)NC(=O)C(C)(C)NC(=O)[C@@H](NC(=O)[C@H](CCCCNC(C)=O)NC(=O)[C@H](C)NC(=O)[C@H](CCCNC(=N)N)NC(=O)[C@@H](NC(=O)[C@H](CCCCN)NC(=O)[C@H](CCC(=O)O)NC(=O)[C@H](CCCNC(=N)N)NC(=O)CNC(=O)[C@H](CCC(=O)O)NC(=O)[C@H](CC(C)C)NC(C)=O)C(C)C)[C@@H](C)CC)C(=O)N[C@@H](CO)C(=O)N[C@H](C(=O)N[C@@H](Cc1c[nH]c2ccccc12)C(=O)N[C@@H](CO)C(=O)NC(C)(C)C(=O)N[C@@H](CCCNC(=N)N)C(=O)N[C@@H](CCCCN)C(=O)N[C@@H](CCCCNC(C)=O)C(N)=O)[C@@H](C)O)C(=O)O)C(=O)O)C(=O)O)C(=O)O [compound 62] (Ac-LEGREKVRAK(Ac)I[Aib][Aib]EGK([Suc-X13])STWS[Aib]RKK(Ac)-NH2) |
| 3.2 nM | 90% | CCCCCCCCCCCCCCCC(=O)N[C@@H](CCC(=O)N[C@@H](CCC(=O)N[C@@H](CCC(=O)NCCCOCCOCCOCCCNC(=O)CCC(=O)NCCCOCCOCCOCCCNC(=O)CCC(=O)NCCCOCCOCCOCCCNC(=O)CCC(=O)NCCCC[C@H](NC(=O)CNC(=O)[C@H](CCC(=O)O)NC(=O)C(C)(C)NC(=O)C(C)(C)NC(=O)[C@@H](NC(=O)[C@H](CCCCNC(C)=O)NC(=O)[C@H](C)NC(=O)[C@H](CCCNC(=N)N)NC(=O)[C@@H](NC(=O)[C@H](CCCCN)NC(=O)[C@H](CCC(=O)O)NC(=O)[C@H](CCCNC(=N)N)NC(=O)CNC(=O)[C@H](CCC(=O)O)NC(=O)[C@H](CC(C)C)NC(C)=O)C(C)C)[C@@H](C)CC)C(=O)N[C@@H](CO)C(=O)N[C@H](C(=O)N[C@@H](Cc1ccccc1)C(=O)N[C@H](CO)C(=O)N[C@@H](CCCCN)C(=O)N[C@@H](CCCNC(=N)N)C(=O)N[C@@H](C)C(=O)N[C@@H](CCCCNC(C)=O)C(N)=O)[C@@H](C)O)C(=O)O)C(=O)O)C(=O)O [compound 14] (Ac-LEGREKVRAK(Ac)I[Aib][Aib]EGK([Suc-X1])STF[dS]KRAK(Ac)-NH2) |
| 0.79 nM | 95% | CCCCCCCCCCCCCCCC(=O)N[C@@H](CCC(=O)N[C@@H](CCC(=O)N[C@@H](CCC(=O)N[C@@H](CCC(=O)NCCCOCCOCCOCCCNC(=O)CCC(=O)NCCCOCCOCCOCCCNC(=O)CCC(=O)NCCCC[C@H](NC(=O)CNC(=O)[C@H](CCC(=O)O)NC(=O)C(C)(C)NC(=O)C(C)(C)NC(=O)[C@@H](NC(=O)[C@H](CCCCNC(C)=O)NC(=O)[C@H](C)NC(=O)[C@H](CCCNC(=N)N)NC(=O)[C@@H](NC(=O)[C@H](CCCCN)NC(=O)[C@H](CCC(=O)O)NC(=O)[C@H](CCCNC(=N)N)NC(=O)CNC(=O)[C@H](CCC(=O)O)NC(=O)[C@H](CC(C)C)NC(C)=O)C(C)C)[C@@H](C)CC)C(=O)N[C@@H](CO)C(=O)N[C@H](C(=O)N[C@@H](Cc1ccccc1)C(=O)N[C@@H](CO)C(=O)N[C@@](C)(CCCCN)C(=O)N[C@@H](CCCNC(=N)N)C(=O)N[C@@H](C)C(=O)N[C@@H](CCCCNC(C)=O)C(N)=O)[C@@H](C)O)C(=O)O)C(=O)O)C(=O)O)C(=O)O [compound 10] (Ac-LEGREKVRAK(Ac)I[Aib][Aib]EGK([Suc-X8])STFS[αMeK]RAK(Ac)-NH2) |

From patent publication US11725036B2, “Modified lipidated relaxin B chain peptides and their therapeutic use” (Sanofi, priority 2018, dated 2023)
